Laboratory results reported in patent US20120083476A1, “HETEROARYL-SUBSTITUTED SPIROCYCLIC DIAMINE UREA MODULATORS OF FATTY ACID AMIDE HYDROLASE” (Janssen Pharmaceutica NV, priority 2009, published 2012).
Where a name gives a salt, the structure may show the parent alone.

Key:
rats [1] = conditions: WO 04/033652; cited from earlier work
rats [2] = conditions: cited from earlier work
FAAH [3] = target: T1, FAAH (Homo sapiens, UniProt O00519); conditions: WO 04/033652; cited from earlier work
T1 sequence (O00519 1-579): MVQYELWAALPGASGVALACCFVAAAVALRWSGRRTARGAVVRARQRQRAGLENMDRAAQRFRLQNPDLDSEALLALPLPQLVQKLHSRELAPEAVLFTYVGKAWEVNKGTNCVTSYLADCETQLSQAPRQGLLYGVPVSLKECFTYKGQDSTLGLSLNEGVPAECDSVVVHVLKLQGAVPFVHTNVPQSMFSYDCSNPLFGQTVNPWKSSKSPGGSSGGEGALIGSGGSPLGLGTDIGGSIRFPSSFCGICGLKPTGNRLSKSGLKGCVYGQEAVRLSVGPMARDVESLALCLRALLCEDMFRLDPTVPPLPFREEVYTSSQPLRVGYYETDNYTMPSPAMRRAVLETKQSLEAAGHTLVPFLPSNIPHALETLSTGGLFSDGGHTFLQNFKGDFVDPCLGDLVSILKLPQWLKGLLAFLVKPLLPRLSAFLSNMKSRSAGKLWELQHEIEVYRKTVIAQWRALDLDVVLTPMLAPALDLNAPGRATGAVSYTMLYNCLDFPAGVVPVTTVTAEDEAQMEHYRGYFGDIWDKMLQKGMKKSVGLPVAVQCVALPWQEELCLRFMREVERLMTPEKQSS

Rat FAAH = target: T2, Rat FAAH (Rattus norvegicus, UniProt P97612); assay: Assay Method 2: rat FAAH assay (3H-anandamide hydrolysis in cell homogenate); assay type: biochemical; conditions: read-out: Assay 2 IC50
T2 construct: expressed in transfected cells; host or cells: SK-N-MC cells stably transfected with rat FAAH cDNA (G418 selection)
T2 sequence (P97612 1-579): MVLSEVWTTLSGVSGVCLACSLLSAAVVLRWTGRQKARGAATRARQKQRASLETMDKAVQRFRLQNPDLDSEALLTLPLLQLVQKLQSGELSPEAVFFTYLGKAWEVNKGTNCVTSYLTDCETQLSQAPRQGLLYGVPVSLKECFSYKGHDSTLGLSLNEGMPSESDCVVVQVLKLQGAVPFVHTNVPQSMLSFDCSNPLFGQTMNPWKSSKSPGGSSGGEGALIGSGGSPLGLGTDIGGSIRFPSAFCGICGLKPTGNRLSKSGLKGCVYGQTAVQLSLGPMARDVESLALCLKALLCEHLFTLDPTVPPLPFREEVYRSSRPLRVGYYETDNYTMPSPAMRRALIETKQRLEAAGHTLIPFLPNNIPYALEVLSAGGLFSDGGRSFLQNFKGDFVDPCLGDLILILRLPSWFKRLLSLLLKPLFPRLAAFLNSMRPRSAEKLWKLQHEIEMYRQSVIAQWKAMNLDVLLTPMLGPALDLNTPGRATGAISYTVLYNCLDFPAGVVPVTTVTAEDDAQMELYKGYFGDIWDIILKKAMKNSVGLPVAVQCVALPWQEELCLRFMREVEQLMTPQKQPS
How it was run: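 Homogenates of T84 cells or SK-N-MC cells stably transfected with rat FAAH, in pH 9 Tris/EDTA/glycerol/Triton buffer, incubated 1 h at room temperature with 3H-anandamide. Released labeled ethanolamine separated from substrate on activated charcoal and counted by scintillation; values averaged over runs.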

FAAH [4] = target: T1, FAAH; assay: Assay Method 1: human FAAH assay (3H-anandamide hydrolysis in cell homogenate); assay type: biochemical; parameters: expressed in transfected cells; host or cells: SK-N-MC cells stably transfected with human FAAH cDNA (G418 selection); alternatively T84 cell pellets; conditions: read-out: Assay 1 IC50
How it was run: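 Homogenates of T84 cells or SK-N-MC cells stably transfected with human FAAH, in pH 9 Tris/EDTA buffer with 0.02% Triton X-100. Incubated 1 h at rt with compound and 80 nM (final) [3H-ethanolamine]-anandamide. Released 3H-ethanolamine separated on charcoal filters and counted by scintillation.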

Row | Compound | IC50 (Rat FAAH) | IC50 (FAAH [4]) | analgesic activity in tail emersion test (rats [1]) | analgesia in hot plate test (rats [2]) | inhibition of FAAH (FAAH [3])
1 | O=C(CCCCCCc1ccccc1)c1ncc(-c2ccccn2)o1 [OL-135] |  |  | analgesic activity | analgesic activity | potent inhibitor
2 | O=C(Nc1noc2ncccc12)N1CC2(CCN(Cc3cccc(Oc4ccc(Cl)cc4)c3)CC2)C1 [Example 66, 7-[3-(4-Chloro-phenoxy)-benzyl]-2,7-diaza-spiro[3.5]nonane-2-carboxylic acid isoxazolo[5,4-b]pyridin-3-ylamide, trifluoroacetic acid salt] | 600 nM | 130 nM |  |  | 
3 | O=C(Nc1cccnc1)N1CC2(CCN(Cc3cccc(Oc4ccc(F)c(F)c4)c3)CC2)C1 [Example 124, 7-[3-(3,4-Difluoro-phenoxy)-benzyl]-2,7-diaza-spiro[3.5]nonane-2-carboxylic acid pyridin-3-ylamide] | 400 nM | 300 nM |  |  | 
4 | O=C(Nc1cccnc1)N1CCC2(CC1)CN(Cc1cccc(Oc3ccc(Cl)cc3)c1)C2 [Example 4, 2-[3-(4-Chloro-phenoxy)-benzyl]-2,7-diaza-spiro[3.5]nonane-7-carboxylic acid pyridin-3-ylamide] | 230 nM | 30 nM |  |  | 
5 | O=C(Nc1cccnc1)N1CC2(CN(Cc3cccc(Oc4ccc(Cl)cc4)c3)C2)C1 [Example 35, 6-(3-(4-chlorophenoxy)benzyl)-N-(pyridin-3-yl)-2,6-diazaspiro[3.3]heptane-2-carboxamide] | 700 nM | 30 nM |  |  | 
6 | O=C(Nc1cccnc1)N1CC2(CCN(Cc3cccc(Oc4ccccc4Cl)c3)CC2)C1 [Example 121, 7-[3-(2-Chloro-phenoxy)-benzyl]-2,7-diaza-spiro[3.5]nonane-2-carboxylic acid pyridin-3-ylamide] | 1200 nM | 30 nM |  |  | 
7 | O=C(Nc1cccnc1)N1CC2(CCN(Cc3ccc(Cl)c(Cl)c3)CC2)C1 [Example 101, 7-(3,4-dichlorobenzyl)-N-(pyridin-3-yl)-2,7-diazaspiro[3.5]nonane-2-carboxamide] | > 10000 nM | 6000 nM |  |  | 
8 | O=C(Nc1ccc(-n2nccn2)nc1)N1CCC2(CCCN2Cc2cccc(Oc3ccc(Cl)cc3)c2)CC1 [Example 94, 1-[3-(4-Chloro-phenoxy)-benzyl]-1,8-diaza-spiro[4.5]decane-8-carboxylic acid (6-[1,2,3]triazol-2-yl-pyridin-3-yl)-amide] | 580 nM | 370 nM |  |  | 
9 | O=C(Nc1cccnc1)N1CC2(CCN(Cc3cccc(C#Cc4ccccc4Cl)c3)CC2)C1 [Example 131, 7-[3-(2-Chloro-phenylethynyl)-benzyl]-2,7-diaza-spiro[3.5]nonane-2-carboxylic acid pyridin-3-ylamide] | 3000 nM | 330 nM |  |  | 
10 | Cc1nn(C)c2ncc(NC(=O)N3CC4(CCN(Cc5cccc(Oc6ccc(Cl)cc6)c5)CC4)C3)cc12 [Example 75, 7-(3-(4-chlorophenoxy)benzyl)-N-(1,3-dimethyl-1H-pyrazolo[3,4-b]pyridin-5-yl)-2,7-diazaspiro[3.5]nonane-2-carboxamide, trifluoroacetic acid salt] | 400 nM | 2500 nM |  |  | 
11 | O=C(Nc1cccnc1)N1CC2(CCN(Cc3ccc(Cl)c(OC(F)(F)F)c3)CC2)C1 [Example 110, 7-(4-chloro-3-(trifluoromethoxy)benzyl)-N-(pyridin-3-yl)-2,7-diazaspiro[3.5]nonane-2-carboxamide] | 6000 nM | 1300 nM |  |  | 
12 | O=C(Nc1cccnc1)N1CC2(CCN(Cc3cccc(Oc4cccc(OC(F)(F)F)c4)c3)CC2)C1 [Example 115, N-(pyridin-3-yl)-7-(3-(3-(trifluoromethoxy)phenoxy)benzyl)-2,7-diazaspiro[3.5]nonane-2-carboxamide] | 8000 nM | 750 nM |  |  | 

The remaining molecules from weak to strong by IC50 (Rat FAAH), led by results:

Row | IC50 (Rat FAAH) | IC50 (FAAH [4]) | Compound | analgesic activity in tail emersion test (rats [1]) | analgesia in hot plate test (rats [2]) | inhibition of FAAH (FAAH [3])
13 | 130 nM | 1500 nM | O=C(Nc1cccnc1)N1CCC2(CCN(Cc3cccc(Oc4ccc(Cl)cc4)c3)C2)C1 (centres unmarked) [Example 10, 7-[3-(4-Chloro-phenoxy)-benzyl]-2,7-diaza-spiro[4.4]nonane-2-carboxylic acid pyridin-3-ylamide] |  |  | 
14 | 120 nM | 1600 nM | O=C(Nc1cnccc1Cl)N1CCCC2(CN(Cc3cccc(Oc4ccc(Cl)cc4)c3)C2)C1 [Example 30, 2-(3-(4-chlorophenoxy)benzyl)-N-(4-chloropyridin-3-yl)-2,6-diazaspiro[3.5]nonane-6-carboxamide] |  |  | 
15 | 100 nM | 700 nM | O=C(Nc1cnc2[nH]ccc2c1)N1CCC2(CCN(Cc3cccc(Oc4ccc(Cl)cc4)c3)C2)C1 (centres unmarked) [Example 12, 7-[3-(4-Chloro-phenoxy)-benzyl]-2,7-diaza-spiro[4.4]nonane-2-carboxylic acid (1H-pyrrolo[2,3-b]pyridin-5-yl)-amide] |  |  | 
16 | 80 nM | 20 nM | O=C(Nc1ccc(-n2nccn2)cc1)N1CC2(CCN(Cc3cccc(Oc4ccc(Cl)cc4)c3)CC2)C1 [Example 41, 7-[3-(4-Chloro-phenoxy)-benzyl]-2,7-diaza-spiro[3.5]nonane-2-carboxylic acid (4-[1,2,3]triazol-2-yl-phenyl)-amide, trifluoroacetic acid salt] |  |  | 
17 | 60 nM | 20 nM | O=C(Nc1ccc(-n2nccn2)nc1)N1CCC2(CCN(Cc3cccc(Oc4ccc(Cl)cc4)c3)C2)CC1 [Example 1, 2-[3-(4-Chloro-phenoxy)-benzyl]-2,8-diaza-spiro[4.5]decane-8-carboxylic acid (6-[1,2,3]triazol-2-yl-pyridin-3-yl)-amide] |  |  | 
18 | 40 nM | 420 nM | O=C(Nc1cnccc1C(F)(F)F)N1CC2(CCN(Cc3cccc(Oc4ccc(Cl)cc4)c3)CC2)C1 [Example 86, 7-(3-(4-chlorophenoxy)benzyl)-N-(4-(trifluoromethyl)pyridin-3-yl)-2,7-diazaspiro[3.5]nonane-2-carboxamide] |  |  | 
19 | 30 nM | 70 nM | Cc1cncc(NC(=O)N2CC3(CCN(Cc4cccc(Oc5ccc(Cl)cc5)c4)CC3)C2)c1 [Example 79, 7-(3-(4-chlorophenoxy)benzyl)-N-(5-methylpyridin-3-yl)-2,7-diazaspiro[3.5]nonane-2-carboxamide, trifluoroacetic acid salt] |  |  | 
20 | 30 nM | 200 nM | O=C(Nc1cccnc1)N1CC2(CCN(Cc3cccc(Oc4ccc(Br)cc4)c3)CC2)C1 [Example 123, 7-[3-(4-Bromo-phenoxy)-benzyl]-2,7-diaza-spiro[3.5]nonane-2-carboxylic acid pyridin-3-ylamide] |  |  | 
21 | 30 nM | 10 nM | O=C(Nc1cnccc1Cl)N1CC2(CN(Cc3cccc(Oc4ccc(Cl)cc4)c3)C2)C1 [Example 36, 6-(3-(4-chlorophenoxy)benzyl)-N-(4-chloropyridin-3-yl)-2,6-diazaspiro[3.3]heptane-2-carboxamide] |  |  | 
22 | 10 nM | 70 nM | O=C(Nc1cnc2ccccc2c1)N1CCC2(CCN(Cc3cccc(Oc4ccc(Cl)cc4)c3)CC2)CC1 [Example 33, 9-(3-(4-chlorophenoxy)benzyl)-N-(quinolin-3-yl)-3,9-diazaspiro[5.5]undecane-3-carboxamide] |  |  | 
23 | 10 nM | 130 nM | O=C(Nc1noc2ccccc12)N1CCC2(CC1)CN(Cc1cccc(Oc3ccc(Cl)cc3)c1)C2 [Example 5, 2-[3-(4-Chloro-phenoxy)-benzyl]-2,7-diaza-spiro[3.5]nonane-7-carboxylic acid benzo[d]isoxazol-3-ylamide] |  |  | 
